Experimental data reported in US12239643B2, “Therapeutic agent for inflammatory diseases, autoimmune diseases, fibrotic diseases, and cancer diseases” (MEIJI SEIKA PHARMA CO., LTD., priority 2018, dated 2025).
Where two headings read alike, the source gives them in different places.

How the values were obtained:
PDE4 = test: Evaluation of PDE4 inhibitory activity, scintillation proximity assay; assay type: biochemical; settings: for PDE4 inhibitory activity: summary in words of Tables 57 to 69
In short: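 SPA with [2,8-3H]-cAMP and diluted PDE4 enzyme preparation in 50 mM Tris-HCl pH 7.4, 8.3 mM MgCl2, 1.7 mM EGTA, 3 mg/mL BSA, 120 min at room temperature. Product captured on ZnSO4-containing YSi-SPA beads, scintillation counted; IC50 from inhibition curves vs DMSO control and no-enzyme blank.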

[1] = test system: oxazolone-induced auricle edema, BALB/c mice; test: Hapten repeated application mouse chronic dermatitis model (oral, topical); assay type: in vivo; settings: oral, 0.3 to 10 mg/kg twice a day for 10 days
Protocol: Evaluation was carried out using female BALB/c mice (7 to 8 weeks of age). First, the hair of the abdomen of the mice was treated with a hair clipper, and then 150 μL of a 3% oxazolone acetone/ethanol solution was applied to the abdomen as a hapten. One week later, 20 μL/ear of 1% oxazolone acetone/ethanol solution was applied to the outer surface of the auricle of both ears of the mice 3 times/week to induce inflammation. A 1% oxazolone-acetone/ethanol solution was applied every other day for 10 days from 1 week after the start of inflammation induction. In addition, for 10 days from 1 week after the start of inflammation induction, the test compound suspended in 0.5% w/v methylcellulose (0.5% MC) was orally administered at 0.3 to 10 mg/kg twice a day (10 μL/g), or 20 μL of a 0.3 to 3% test compound dissolved in an acetone/ethanol solution was applied once or twice a day (topical administration). A 1% oxazolone was not applied to the blank. The control was one in which 1% oxazolone was applied and only 0.5% MC was orally administered without using the test compound, or only an acetone/ethanol solution was applied.
After administration for 10 days, auricle thickness was measured using a dial thickness gauge, and the changes in auricular thickness before the treatment (immediately before the start of administration of the test compound) and after the treatment (after the administration of the test compound for 10 days) were used to calculate the edema suppression rate by the following formula. Edema Suppression Rate (%)={1−(Auricle Thickness After Treatment by Test Compound−Auricle Thickness Before Treatment by Test Compound)/(Auricle Thickness After Treatment of Control−Auricle Thickness Before Treatment of Control)}×100
The measurement results obtained by measuring the edema suppression rate at the time of oral administration of each test compound by the above method were evaluated in accordance with the following evaluated basis; A: 70% or more, B: 40% or more and less than 70%, and C: less than 40%. In addition, the measurement results obtained by measuring the edema suppression rate at the time of topical administration of each test compound were evaluated in accordance with the following evaluated basis; A: 100% or more, B: 70% or more and less than 100%, and C: less than 70%.

[2] = Hepatic metabolic stability (rat liver microsome method); assay type: in vitro ADME; settings: rat liver microsomes 0.5 mg/mL, test substance 1 μM, NADPH 1 mM, 37° C., 30 minutes
In short: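 Rat liver microsomes (0.5 mg/mL final) with test compound (1 μM final) in 100 mM potassium phosphate pH 7.4, 37° C; reaction started with NADPH (1 mM final) after 5 min preincubation. Acetonitrile stop at 0 and 30 min, LC-MS quantitation; % remaining = 30 min/0 min ×100, graded A ≥75%, B 60–<75%, C 45–<60%, D <45%.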

[3] = finer grading of compounds rated A in Evaluation 1, read-out: PDE4 Inhibitory Activity (Evaluation 2)
[4] = scintillation proximity assay, read-out: PDE4 Inhibitory Activity (Evaluation 1; concentration for the inhibition rate of 50%)

Row | SMILES | IC50 (PDE4; [3]) | IC50 (PDE4; [4]) | PDE4 inhibitory activity (PDE4) | Mouse Chronic Dermatitis Model (Test Example 8), Oral: edema suppression rate [1] | Residual ratio (% remaining for 30-minute reaction) [2]
1 | COC(c1cc(-c2nccs2)c2oc(N3CC4CC(C3)N4)nc2c1OC(F)(F)F)C(F)F (centres unmarked) [Example 208, 2-(3,6-Diazabicyclo[3.1.1]heptan-3-yl)-5-(2,2-difluoro-1-methoxyethyl)-7-(thiazol-2-yl)-4-(trifluoromethoxy)benzo[d]oxazole] | 1 to 11 nM | < 100 nM | particularly excellent | B (B: 40% or more and less than 70%) | –
2 | CC(=O)c1cc(-c2nccs2)c2oc(N3CC4CC(C3)N4)nc2c1OC(F)(F)F [Example 212, 1-(2-(3,6-Diazabicyclo[3.1.1]heptan-3-yl)-7-(thiazol-2-yl)-4-(trifluoromethoxy)benzo[d]oxazol-5-yl)ethan-1-one] | ≤ 1 nM | < 100 nM | particularly excellent | B (B: 40% or more and less than 70%) | –
3 | CC(O)(c1ccc(-c2nccs2)c2oc(N3CC4CC(C3)N4)nc12)C(F)(F)F (centres unmarked) [Example 234, 2-(2-(3,6-Diazabicyclo[3.1.1]heptan-3-yl)-7-(thiazol-2-yl)benzo[d]oxazol-4-yl)-1,1,1-trifluoropropan-2-ol] | ≤ 1 nM | < 100 nM | particularly excellent | A (A: 70% or more) | –
4 | COC(C)(c1ccc(-c2nccs2)c2oc(N3CC4CC(C3)N4)nc12)C(F)(F)F (centres unmarked) [Example 235, 2-(3,6-Diazabicyclo[3.1.1]heptan-3-yl)-7-(thiazol-2-yl)-4-(1,1,1-trifluoro-2-methoxypropan-2-yl)benzo[d]oxazole] | ≤ 1 nM | < 100 nM | particularly excellent | A (A: 70% or more) | –
5 | CC(O)(c1ccc(-c2nccs2)c2oc(N3CC4CC(C3)N4)nc12)C(F)F (centres unmarked) [Example 296, 2-(2-(3,6-Diazabicyclo[3.1.1]heptan-3-yl)-7-(thiazol-2-yl)benzo[d]oxazol-4-yl)-1,1-difluoropropan-2-ol] | 1 to 11 nM | < 100 nM | particularly excellent | A (A: 70% or more) | –
6 | O=S(=O)(c1ccc(-c2nccs2)c2oc(N3CC4CC(C3)N4)nc12)N1CCOCC1 [Example 391, 2-(3,6-Diazabicyclo[3.1.1]heptan-3-yl)-4-(morpholinosulfonyl)-7-(thiazol-2-yl)benzo[d]oxazole] | – | < 100 nM | – | – | B (B: 60% or more and less than 75%)
7 | COCC(F)(F)Oc1ccc(-c2nccs2)c2oc(N3CC4CC(C3)N4)nc12 [Example 392, 2-(3,6-Diazabicyclo[3.1.1]heptan-3-yl)-4-(1,1-difluoro-2-methoxyethoxy)-7-(thiazol-2-yl)benzo[d]oxazole] | – | < 100 nM | – | – | B (B: 60% or more and less than 75%)
8 | Cn1ccc(-c2ccc(OC(F)(F)C(C)(C)O)c3nc(N4CC5CC(C4)N5)oc23)n1 [Example 394, 1-((2-(3,6-Diazabicyclo[3.1.1]heptan-3-yl)-7-(1-methyl-1H-pyrazol-3-yl)benzo[d]oxazol-4-yl)oxy)-1,1-difluoro-2-methylpropan-2-ol] | – | 100 to 1000 nM | – | – | A (A: a % remaining rate of 75% or more)
9 | CCC(O)C(F)(F)Oc1ccc(-c2nccs2)c2oc(N3CC4CC(C3)N4)nc12 (centres unmarked) [Example 395, 1-((2-(3,6-Diazabicyclo[3.1.1]heptan-3-yl)-7-(thiazol-2-yl)benzo[d]oxazol-4-yl)oxy)-1,1-difluorobutan-2-ol] | – | < 100 nM | – | – | B (B: 60% or more and less than 75%)
10 | OC1CCN(c2ccc(-c3nccs3)c3oc(N4CC5CC(C4)N5)nc23)CC1 [Example 397, 1-(2-(3,6-Diazabicyclo[3.1.1]heptan-3-yl)-7-(thiazol-2-yl)benzo[d]oxazol-4-yl)piperidin-4-ol] | – | < 100 nM | – | – | A (A: a % remaining rate of 75% or more)
11 | CC(C)(O)C(F)(F)Oc1c(Br)cc(-c2nccs2)c2oc(N3CC4CC(C3)N4)nc12 [Example 399, 1-((2-(3,6-Diazabicyclo[3.1.1]heptan-3-yl)-5-bromo-7-(thiazol-2-yl)benzo[d]oxazol-4-yl)oxy)-1,1-difluoro-2-methylpropan-2-ol] | – | < 100 nM | – | – | B (B: 60% or more and less than 75%)
12 | CC(C)(O)C(F)(F)Oc1c(Cl)cc(-c2nccs2)c2oc(N3CC4CC(C3)N4)nc12 [Example 400, 1-((2-(3,6-Diazabicyclo[3.1.1]heptan-3-yl)-5-chloro-7-(thiazol-2-yl)benzo[d]oxazol-4-yl)oxy)-1,1-difluoro-2-methylpropan-2-ol] | – | < 100 nM | – | – | B (B: 60% or more and less than 75%)
13 | OCC(F)(F)Oc1c(Cl)cc(-c2nccs2)c2oc(N3CC4CC(C3)N4)nc12 [Example 401, 2-((2-(3,6-Diazabicyclo[3.1.1]heptan-3-yl)-5-chloro-7-(thiazol-2-yl)benzo[d]oxazol-4-yl)oxy)-2,2-difluoroethan-1-ol] | – | < 100 nM | – | – | A (A: a % remaining rate of 75% or more)
14 | OCC(F)(F)Oc1ccc(-c2nccs2)c2oc(N3CC4CCC(C3)N4)nc12 [Example 404, 2-((2-(3,8-Diazabicyclo[3.2.1]octan-3-yl)-7-(thiazol-2-yl)benzo[d]oxazol-4-yl)oxy)-2,2-difluoroethan-1-ol] | – | < 100 nM | – | – | B (B: 60% or more and less than 75%)
15 | CC(C)(O)C(F)(F)Oc1ccc(-c2nccs2)c2oc(N3CC4CCC(C3)N4)nc12 [Example 405, 1-((2-(3,8-Diazabicyclo[3.2.1]octan-3-yl)-7-(thiazol-2-yl)benzo[d]oxazol-4-yl)oxy)-1,1-difluoro-2-methylpropan-2-ol] | – | < 100 nM | – | – | B (B: 60% or more and less than 75%)
16 | O=C(N1CCOCC1)C(F)(F)Oc1ccc(-c2nccs2)c2oc(N3CC4CC(C3)N4)nc12 [Example 409, 2-((2-(3,6-Diazabicyclo[3.1.1]heptan-3-yl)-7-(thiazol-2-yl)benzo[d]oxazol-4-yl)oxy)-2,2-difluoro-1-morpholinoethan-1-one] | – | < 100 nM | – | – | B (B: 60% or more and less than 75%)
17 | NC(=O)C(F)(F)Oc1ccc(-c2nccs2)c2oc(N3CC4CC(C3)N4)nc12 [Example 410, 2-((2-(3,6-Diazabicyclo[3.1.1]heptan-3-yl)-7-(thiazol-2-yl)benzo[d]oxazol-4-yl)oxy)-2,2-difluoroacetamide] | – | < 100 nM | – | – | A (A: a % remaining rate of 75% or more)
18 | O=C(NCCO)C(F)(F)Oc1ccc(-c2nccs2)c2oc(N3CC4CC(C3)N4)nc12 [Example 411, 2-((2-(3,6-Diazabicyclo[3.1.1]heptan-3-yl)-7-(thiazol-2-yl)benzo[d]oxazol-4-yl)oxy)-2,2-difluoro-N-(2-hydroxyethyl)acetamide] | – | < 100 nM | – | – | A (A: a % remaining rate of 75% or more)
19 | O=C(N1CC(O)C1)C(F)(F)Oc1ccc(-c2nccs2)c2oc(N3CC4CC(C3)N4)nc12 [Example 412, 2-((2-(3,6-Diazabicyclo[3.1.1]heptan-3-yl)-7-(thiazol-2-yl)benzo[d]oxazol-4-yl)oxy)-2,2-difluoro-1-(3-hydroxyazetidin-1-yl)ethan-1-one] | – | < 100 nM | – | – | A (A: a % remaining rate of 75% or more)
20 | FC(F)(F)c1ccc(Oc2cc(-c3nccs3)c3oc(N4CC5CC(C4)N5)nc3c2)nc1 [Example 413, 2-(3,6-Diazabicyclo[3.1.1]heptan-3-yl)-7-(thiazol-2-yl)-5-((5-(trifluoromethyl)pyridin-2-yl)oxy)benzo[d]oxazole] | – | < 100 nM | – | – | A (A: a % remaining rate of 75% or more)
